Source: patent US8591892B2, “FTY720 increases CD74 expression and sensitizes cancer cells to anti-CD74 antibody-mediated cell death” (The Ohio State University, priority 2011, dated 2013)

Tests used:
[1] = system: human AML cell lines; test: Proliferation assays, milatuzumab with/without IFN-γ; format: cell-based
Description: CD74 expression in bone marrow biopsy (BMB) specimens from non-M3 AML patients was evaluated by immunohistochemistry and, for 3 human AML cell lines, by flow cytometry, with/without permeabilization and with/without IFN-γ (40 and 200 U/mL). These cell lines were also tested in proliferation assays for responses to milatuzumab, with/without IFN-γ. In 13/14 BMB specimens, there was moderate to strong CD74 expression by leukemic blasts, which was mostly intracellular, usually with a perinuclear distribution (data not shown). […] IFN-γ induced intracellular CD74 in all 3 lines (from 85%-868%) (not shown).

[2] = system: primary tumor cells from MCL patients; test: Cell viability by annexin-V/PI staining and flow cytometry; format: cell-based, human; conditions: six MCL patients, 24 hours; FTY720 2.5 μM, immobilized milatuzumab 5 μg/ml
Description: FIG. 4. FTY720 sensitizes MCL cell lines and primary patient tumor cells to milatuzumab-mediated cytotoxicity. (A) Four MCL cell lines and primary cells from 6 patients were treated with FTY720 and/or milatuzumab plus cross-linking antibodies at the indicated concentrations. (B) Patient characteristics. (C) Individual patient responses. (D) Representative histograms summarizing patient responses. Cell death was determined by annexin V/PI staining and flow cytometry at 24 hours. Data are shown as the percentage of annexin V−/PI− cells (live cells) and are normalized to untreated controls.
Primary tumor cells were isolated from the peripheral blood/lymph nodes of patients with MCL. All patients studied were diagnosed with MCL according to the World Health Organization (WHO) classification of tumors (Swerdlow, 2008, World Health Organization Classification of Tumours of Haematopoetic and Lymphoid Tissues (ed 4th ed.) Lyon, France, International Agency on Research for Cancer). All samples contained at least 85% of CD19^+/CD20^+ B cells detected by flow cytometry. […]
To assess lysosomal volume, FTY720 treated cells were incubated with LYSOTRACKER™ green DND-26. […] Cell viability was measured at 24 hours by dual staining with annexin-V FITC and propidium iodide (PI). A total of 10,000 events were collected and analyzed using WinMDI. […]

[3] = system: Capan-1, Aspc-1, LoVo, HT-29, U87, U118 cells; test: Cytotoxicity of milatuzumab with and without crosslinking agent or IFN-γ; format: cell-based; conditions: regardless of crosslinking agent or IFN-γ
Description: (§1) We examined whether the ability of anti-CD74 MAbs to kill cancer cells can be increased by using IFN-γ as an inducer of antigen expression. Using a panel of diverse cancer cell lines (including NHL, MM, GBM, and pancreatic and colonic carcinomas), we examined IFN-γ-induced changes in surface and cytoplasmic CD74 expression. Sensitivity of the malignant cells to milatuzumab was assessed with and without IFN-γ by cytotoxicity assays.
(§2) The cytotoxicity of anti-CD74 antibodies was examined in the presence or absence of IFN-γ (not shown). As previously observed, in vitro cytotoxicity of milatuzumab required crosslinking (Stein, et al., Blood, 104: 3705-11, 2004). Goat anti-human IgG (GAH) was used for crosslinking in these experiments.

[4] = system: WSU-FSCCL NHL cells; test: Cytotoxicity of milatuzumab with GAH crosslinking, with and without IFN-γ; format: cell-based; conditions: in vitro
Description: as §1, §2

[5] = single agents, same dosage and delivery schedule; cited from earlier work

milatuzumab: fully humanized monoclonal antibody specific for CD74
growth inhibition ([1]; first responding AML line, with IFN-γ): 44.8% | growth inhibition ([1]; first responding AML line, without IFN-γ): 23.7% | growth inhibition ([1]; second responding AML line, with IFN-γ): 30.9% | growth inhibition ([1]; second responding AML line, without IFN-γ): −3.9% | average cell death [2]: 50% | cell killing [3]: unable to kill | increased killing after IFN-γ exposure [4]: 33% | weight loss or other side effects [5]: did not cause any observed weight loss or other significant side effects
